Consider eight molecules from patent US20110230472A1, “RING-FUSED AZOLE DERIVATIVE HAVING PI3K-INHIBITING ACTIVITY” (Shionogi & Co., Ltd., priority 2008, published 2011).

pIC50: −log10 of the molar value. Some results are limits rather than exact numbers.

One data set addresses PI-3 kinase γ (Homo sapiens, UniProt P48736). The data set can be described thus: PI3Kγ inhibitory activity, PI3-kinase HTRF assay (inhibition ratio). It is filed as biochemical. Conditions: 0.5 h; for inhibition at 50 µM: compound at 50 μM. In a few lines: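 Single-concentration inhibition ratio (50 or 10 μmol/L compound) versus no-compound (100%) and no-enzyme (0%) wells. Reaction: PI-3 kinase γ, PIP2, ATP, MgCl2/DTT, 30 min at RT after 10 min preincubation. Read-out: HTRF 665/620 nm after 18 h detection.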

The next data set in a line: Metabolic stability test.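 Also: 100% equals the compound amount at 0 min reaction.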 It is filed as in vitro ADME. Conditions: human liver microsome 0.5 mg protein/mL, 1 mmol/L NADPH, 37° C. Summed up: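 Pooled human liver microsomes (0.5 mg protein/mL) incubated with compound and 1 mmol/L NADPH at 37° C. in pH 7.4 Tris buffer for 0 or 30 min. Parent quantified by LC/MS/MS after methanol/acetonitrile quench; value is % remaining at 30 min versus 0 min.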

The target of another data set is T1, CYP3A4 (Homo sapiens, UniProt P08684).
T1 construct: enzyme: pooled human liver microsome 0.2 mg protein/mL; from tissue; host or cells: pooled human liver microsome
In words: CYP inhibition test, pooled human liver microsome, CYP3A4. The class given is in vitro ADME. The note with it: hydroxylation of terfenadine. From the text: (§1) O-de-ethylation of 7-ethoxyresorufin (CYP1A2), methyl-hydroxylation of tolbutamide (CYP2C9), 4′-hydroxylation of mephenyloin (CYP2C19), O-demethylation of dextromethorphan (CYP2D6), and hydroxylation of terfenadine (CYP3A4), which are typical substrate for metabolic reactions of human main CYP5 molecular species (CYP1A2, 2C9, 2C19, 2D6, and 3A4), were adopted as indexes.
(§2) The reaction conditions are as follows: substrate: 0.5 μmol/L of ethoxyresorufin (CYP1A2), 100 μmol/L of tolbutamide (CYP2C9), […] of S-mephenyloin (CYP2C19), 5 μmol/L of dextromethorphan (CYP2D6), and 1 μmol/L of terfenadine (CYP3A4); reaction time; 15 minutes; reaction temperature: 37° C.; enzyme: pooled human liver microsome 0.2 mg protein/mL; test drug concentration: 1, 5, 10, and 20 μmol/L (4 points).
(§3) In a 96-well plate, as a reaction solution, five kinds of substrates, a human liver microsome, and a test drug were added to 50 mmol/L Hepes buffer solution in the aforementioned ratio. A coenzyme NADPH was added to start a metabolic reaction, which is an index. After reacting at 37° C. for 15 minutes, a solution of methanol/acetonitrile (1/1 (v/v)) was added to quench the reaction. After centrifugation at 3000 rpm for 15 minutes, resorufin (CYP1A2 metabolite) in the supernatant was quantitated with a fluorescence multilabel counter, and hydroxylated tolbutamide (CYP2C9 metabolite), 4′-hydroxylated mephenyloin (CYP2C19 metabolite), […], terfenadine in alcohol form (CYP3A4 metabolite) were quantitated with LC/MS/MS.
(§4) The case wherein only DMSO (a solvent which dissolved a drug) was added to a reaction system was defined as a control (100%). When a test drug solution was added, the remaining activity (%) at each concentration was calculated, and then IC50 was calculated with a concentration and an inhibition ratio by an inverse estimation using a logistic model.

For a further data set, the target named is T2, CYP2D6 (Homo sapiens, UniProt P10635).
T2 construct: enzyme: pooled human liver microsome 0.2 mg protein/mL; from tissue; host or cells: pooled human liver microsome
In words: CYP inhibition test, pooled human liver microsome, CYP2D6. Conditions: O-demethylation of dextromethorphan. The class given is in vitro ADME.
From the text: as §1, §2, §3, §4

The next data set has as its target T3, CYP2C9 (Homo sapiens, UniProt P11712).
T3 construct: enzyme: pooled human liver microsome 0.2 mg protein/mL; from tissue; host or cells: pooled human liver microsome
In words: CYP inhibition test, pooled human liver microsome, CYP2C9. The class given is in vitro ADME. The note with it: methyl-hydroxylation of tolbutamide.
From the text: as §1, §2, §3, §4
(In general: Liver microsomes are vesicles of endoplasmic reticulum, rich in cytochrome P450 enzymes.)

A further data set has as its target T4, CYP2C19 (Homo sapiens, UniProt P33261).
T4 construct: enzyme: pooled human liver microsome 0.2 mg protein/mL; from tissue; host or cells: pooled human liver microsome
The data set can be described thus: CYP inhibition test, pooled human liver microsome, CYP2C19. The class given is in vitro ADME. The note with it: 4′-hydroxylation of mephenyloin.
From the text: as §1, §2, §3, §4

T2 sequence (P10635 whole entry): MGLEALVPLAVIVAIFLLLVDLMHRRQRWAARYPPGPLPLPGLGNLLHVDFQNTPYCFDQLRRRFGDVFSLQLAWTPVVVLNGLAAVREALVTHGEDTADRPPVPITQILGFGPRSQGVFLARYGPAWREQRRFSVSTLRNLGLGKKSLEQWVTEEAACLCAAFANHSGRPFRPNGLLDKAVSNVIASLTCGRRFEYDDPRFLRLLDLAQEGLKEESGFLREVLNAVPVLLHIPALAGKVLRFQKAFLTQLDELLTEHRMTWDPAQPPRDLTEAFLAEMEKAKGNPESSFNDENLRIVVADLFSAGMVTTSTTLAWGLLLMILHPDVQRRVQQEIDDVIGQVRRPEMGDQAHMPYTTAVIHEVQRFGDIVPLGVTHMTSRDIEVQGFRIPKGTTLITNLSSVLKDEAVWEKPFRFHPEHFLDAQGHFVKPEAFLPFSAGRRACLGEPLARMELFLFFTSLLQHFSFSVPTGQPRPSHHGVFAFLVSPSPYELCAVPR
Chain of PI-3 kinase γ (P48736 whole entry): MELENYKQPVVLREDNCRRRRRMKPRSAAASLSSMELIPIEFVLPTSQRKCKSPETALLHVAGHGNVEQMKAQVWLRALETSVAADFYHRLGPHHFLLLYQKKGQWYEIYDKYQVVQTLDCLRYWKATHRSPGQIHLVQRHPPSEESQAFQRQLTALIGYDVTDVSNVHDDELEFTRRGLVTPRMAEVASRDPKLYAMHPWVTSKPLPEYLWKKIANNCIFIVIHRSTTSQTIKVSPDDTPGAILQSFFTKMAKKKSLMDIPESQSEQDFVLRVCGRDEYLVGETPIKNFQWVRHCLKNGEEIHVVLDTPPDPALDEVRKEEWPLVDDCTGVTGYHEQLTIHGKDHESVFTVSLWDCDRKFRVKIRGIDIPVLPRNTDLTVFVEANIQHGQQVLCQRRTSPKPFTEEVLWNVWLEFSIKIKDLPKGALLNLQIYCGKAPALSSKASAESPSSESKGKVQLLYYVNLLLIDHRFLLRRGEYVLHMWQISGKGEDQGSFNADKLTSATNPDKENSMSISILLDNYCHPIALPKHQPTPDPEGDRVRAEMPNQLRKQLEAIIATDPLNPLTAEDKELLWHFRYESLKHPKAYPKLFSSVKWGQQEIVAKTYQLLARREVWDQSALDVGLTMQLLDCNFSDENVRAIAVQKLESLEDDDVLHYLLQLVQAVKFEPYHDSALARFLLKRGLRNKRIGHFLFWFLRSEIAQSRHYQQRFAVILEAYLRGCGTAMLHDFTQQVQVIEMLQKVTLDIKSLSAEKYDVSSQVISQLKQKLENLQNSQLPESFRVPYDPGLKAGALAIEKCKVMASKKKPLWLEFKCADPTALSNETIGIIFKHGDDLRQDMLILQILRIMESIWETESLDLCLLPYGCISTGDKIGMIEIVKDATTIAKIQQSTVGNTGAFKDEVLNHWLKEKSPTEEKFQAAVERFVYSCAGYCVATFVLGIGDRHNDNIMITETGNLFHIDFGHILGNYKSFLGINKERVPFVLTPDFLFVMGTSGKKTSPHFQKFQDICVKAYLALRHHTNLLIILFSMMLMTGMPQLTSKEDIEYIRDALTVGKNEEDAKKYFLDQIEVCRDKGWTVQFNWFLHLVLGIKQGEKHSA
T1 sequence (P08684 whole entry): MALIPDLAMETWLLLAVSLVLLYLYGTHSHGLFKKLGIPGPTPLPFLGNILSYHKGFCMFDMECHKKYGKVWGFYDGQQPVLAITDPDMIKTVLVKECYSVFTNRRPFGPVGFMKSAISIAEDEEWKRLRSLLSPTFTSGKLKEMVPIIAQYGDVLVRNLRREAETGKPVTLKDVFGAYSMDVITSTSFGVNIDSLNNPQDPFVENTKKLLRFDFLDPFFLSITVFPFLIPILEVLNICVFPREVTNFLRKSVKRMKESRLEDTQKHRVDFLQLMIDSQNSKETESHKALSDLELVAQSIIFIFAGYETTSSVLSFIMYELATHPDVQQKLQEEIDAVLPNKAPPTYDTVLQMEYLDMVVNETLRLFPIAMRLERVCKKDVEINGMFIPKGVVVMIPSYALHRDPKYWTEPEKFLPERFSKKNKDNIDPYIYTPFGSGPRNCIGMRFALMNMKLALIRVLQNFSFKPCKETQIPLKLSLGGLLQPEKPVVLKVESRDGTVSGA
T4 sequence (P33261 whole entry): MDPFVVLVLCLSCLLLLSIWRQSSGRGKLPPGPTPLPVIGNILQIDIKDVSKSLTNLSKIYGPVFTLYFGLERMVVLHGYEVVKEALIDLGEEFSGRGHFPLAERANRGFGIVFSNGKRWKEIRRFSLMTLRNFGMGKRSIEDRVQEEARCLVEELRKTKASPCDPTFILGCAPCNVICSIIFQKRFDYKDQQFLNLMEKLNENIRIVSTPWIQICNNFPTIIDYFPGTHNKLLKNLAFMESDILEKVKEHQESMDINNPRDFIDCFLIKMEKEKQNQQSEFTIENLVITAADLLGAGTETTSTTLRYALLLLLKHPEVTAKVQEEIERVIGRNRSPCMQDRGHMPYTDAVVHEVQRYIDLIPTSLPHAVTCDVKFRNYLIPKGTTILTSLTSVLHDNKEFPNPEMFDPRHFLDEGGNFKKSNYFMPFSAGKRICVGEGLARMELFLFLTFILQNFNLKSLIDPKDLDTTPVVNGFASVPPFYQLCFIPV
T3 sequence (P11712 whole entry): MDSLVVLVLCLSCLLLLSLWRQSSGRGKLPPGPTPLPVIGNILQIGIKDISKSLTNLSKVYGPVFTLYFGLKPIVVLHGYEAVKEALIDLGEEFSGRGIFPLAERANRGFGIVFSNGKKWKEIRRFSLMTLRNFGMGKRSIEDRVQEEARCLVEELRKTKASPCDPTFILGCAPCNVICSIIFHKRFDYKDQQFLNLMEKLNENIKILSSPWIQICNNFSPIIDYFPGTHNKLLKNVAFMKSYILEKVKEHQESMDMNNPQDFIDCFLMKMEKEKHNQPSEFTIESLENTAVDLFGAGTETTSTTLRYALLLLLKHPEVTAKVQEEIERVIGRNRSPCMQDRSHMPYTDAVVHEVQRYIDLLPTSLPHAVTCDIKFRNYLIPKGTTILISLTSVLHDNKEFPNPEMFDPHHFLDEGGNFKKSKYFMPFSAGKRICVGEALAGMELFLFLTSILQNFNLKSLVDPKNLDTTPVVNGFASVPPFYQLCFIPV

`COc1cc(N2CCc3nc(NC(=O)NCc4cc(=O)[nH]o4)sc3C2)nc(OC)n1` [Compound I-279]: the inhibition at 10 µM at PI-3 kinase γ (PI3Kγ, compound at 10 μM) was ≥ 95%. In addition, in “Metabolic stability test”, the “percentage of the test compound remained after reacting for 30 minutes” value (shortened to “percentage of the test compound remained”) is 99.7%. Further, the pIC50 against CYP3A4, on CYP2D6, against CYP2C9 and against CYP2C19 was < 4.70 in each case.
On to `CNC(=O)Nc1cc2n(n1)CCN2c1cc(C(=O)N2CCOCC2)cc(-c2ccc(N)nc2)c1` [Compound I-200], for which the inhibition at 50 µM at PI-3 kinase γ (PI3Kγ) was ≥ 95%. Also, the “percentage of the test compound remained” value in the data set “Metabolic stability test” was 98.6%. Moreover, the pIC50 at CYP3A4, against CYP2D6, on CYP2C9 and against CYP2C19 was < 4.70 each time.
As for `CNC(=O)Nc1nc2c(s1)CN(c1ccnc(OC)n1)CC2` [Compound I-142], the inhibition at 50 µM on PI-3 kinase γ (PI3Kγ) is ≥ 95%. Also, the “percentage of the test compound remained” value in “Metabolic stability test” stood at 97.5%. The negative logarithm of the IC50 (pIC50) against CYP3A4, against CYP2D6, on CYP2C9 and on CYP2C19 was < 4.70 each time.
As for `CNC(=O)Nc1cc2n(n1)CCN2c1ccc(S(C)(=O)=O)cc1` [Compound I-89], the inhibition at 50 µM at PI-3 kinase γ (PI3Kγ) was ≥ 95%. Moreover, the “percentage of the test compound remained” value in “Metabolic stability test” worked out at 93.6%. For the same molecule, the pIC50 against CYP3A4, at CYP2D6, against CYP2C9 and against CYP2C19 was < 4.70 each time.
As to `CN1CCc2cc(N3CCn4nc(NC(=O)c5cccnc5)cc43)ccc2C1=O` [Compound I-347], at PI-3 kinase γ (compound at 10 μmol/L), the inhibition at 10 µM is 91%. Further, the “percentage of the test compound remained” value in “Metabolic stability test” was 92%. Further, the negative-log IC50 (pIC50) at CYP3A4, at CYP2D6, against CYP2C9 and against CYP2C19 was < 4.70 throughout.
For the molecule `CNC(=O)Nc1nc2c(s1)CN(c1cc(Cl)nc(N)n1)CC2` [Compound I-118], the inhibition at 50 µM at PI-3 kinase γ (PI3Kγ) is ≥ 95%. Further, in “Metabolic stability test”, the “percentage of the test compound remained” value is on record as 98.3%. Moreover, the negative logarithm of the IC50 (pIC50) at CYP3A4, on CYP2D6, at CYP2C9 and at CYP2C19 was < 4.70 each time.
Consider `COc1cc(N2CCc3nc(NC(=O)NCC(=O)O)sc3C2)nc(OC)n1` [Compound I-208], for which the inhibition at 50 µM on PI-3 kinase γ (PI3Kγ) is 93%. In addition, the “percentage of the test compound remained” value in the data set “Metabolic stability test” is 87.2%. Moreover, the pIC50 against CYP3A4, against CYP2D6, against CYP2C9 and at CYP2C19 was < 4.70 in each case.
As for `CN1CCc2cc(N3CCn4nc(NC(=O)c5ccco5)cc43)ccc2C1=O` [Compound I-358], at PI-3 kinase γ (compound at 10 μmol/L), the inhibition at 10 µM was ≥ 95%. In addition, in “Metabolic stability test”, the “percentage of the test compound remained” value is recorded as 88.4%. For the same molecule, the pIC50 against CYP3A4, against CYP2D6, on CYP2C9 and against CYP2C19 was < 4.70 in each case.

As a reminder, the inhibition is the share of the control response that was lost under treatment. The pIC50 is −log10 of the IC50, conventionally taken in molar units. Lower therefore signals a high IC50.
